Reference: BindingDB's records for patent US20230303547 (Mission Therapeutics, 2023)

target: T1, Ubiquitin carboxyl-terminal hydrolase 30 (Homo sapiens, UniProt Q70CQ3); assay: USP30 Biochemical IC50 Assay
T1 sequence (Q70CQ3 whole entry): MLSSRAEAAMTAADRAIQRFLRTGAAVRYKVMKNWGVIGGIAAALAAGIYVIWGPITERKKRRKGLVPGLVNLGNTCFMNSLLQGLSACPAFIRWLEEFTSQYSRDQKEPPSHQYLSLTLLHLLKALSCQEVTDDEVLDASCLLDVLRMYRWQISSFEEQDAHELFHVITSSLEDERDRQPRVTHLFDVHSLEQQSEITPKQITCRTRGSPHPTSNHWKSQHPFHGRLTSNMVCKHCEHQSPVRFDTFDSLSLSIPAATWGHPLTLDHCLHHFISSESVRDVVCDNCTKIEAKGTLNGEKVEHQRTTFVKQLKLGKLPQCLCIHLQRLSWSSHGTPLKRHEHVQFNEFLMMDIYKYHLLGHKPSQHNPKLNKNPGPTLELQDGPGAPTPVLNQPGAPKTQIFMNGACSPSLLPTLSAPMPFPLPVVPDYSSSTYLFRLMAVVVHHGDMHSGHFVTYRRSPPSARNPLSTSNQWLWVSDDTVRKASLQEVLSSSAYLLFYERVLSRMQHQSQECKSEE
Protocol: Dilution plates were prepared at 21 times the final concentration (2100 µM for a final concentration of 100 µM) in 50% DMSO in a 96-well polypropylene V-bottom plate (Greiner #651201). A typical 8-point dilution series would be 100, 30, 10, 3, 1, 0.3, 0.1, 0.03 µM final. Reactions were performed in duplicate in black 384 well plates (small volume, Greiner 784076) in a final reaction volume of 21 µl. Either 1 µl of 50% DMSO or diluted compound was added to the plate. USP30 (Boston Biochem #E582) was diluted in reaction buffer (40 mM Tris, pH 7.5, 0.005% Tween 20, 0.5 mg/ml BSA, 5 mM beta-mercaptoethanol) to achieve a final assay concentration of 4 nM, and 10 µl of diluted USP30 was added to the compound. Enzyme and compound were incubated for 30 min at room temp. Reactions were initiated by the addition of 50 nM of TAMRA labelled peptide linked to ubiquitin via an iso-peptide bond as fluorescence polarisation substrate. Reactions were read immediately after addition of substrate and following a 2-hour incubation at room temperature. Readings were performed on a Pherastar Plus (BMG Labtech). λ Excitation 540 nm; λ Emission 590 nm.

Row | SMILES | IC50 [nM]
1 | C[C@@H]1C[C@@H](NC(=O)c2ncc(-c3cc(C#N)ccc3OC3CC3)o2)CN1C#N [US20230303547, Example 1] | 3
2 | COC[C@@H]1C[C@@H](NC(=O)c2ncc(-c3cc(C#N)ccc3OC3CC3)o2)CN1C#N [US20230303547, Example 2] | 3
3 | N#Cc1ccc(OC2CC2)c(-c2cnc(C(=O)N[C@@H]3C[C@@H](CF)N(C#N)C3)o2)c1 [US20230303547, Example 3] | 1
4 | COc1ccc(C#N)cc1-c1cnc(C(=O)N[C@@H]2C[C@@H](C)N(C#N)C2)o1 [US20230303547, Example 4] | 2
